The IC50 is the concentration at which inhibition is half-maximal. A higher IC50 goes with weaker potency.

IC50 data for 21 compounds are collected here from US11976059B2 (KOREA RESEARCH INSTITUTE OF CHEMICAL TECHNOLOGY, priority 2018, dated 2024).

The target in the assay is EGFR L858R/T790M/C797S mutant enzyme (Homo sapiens (Human), UniProt P00533, C797S/L858R/T790M). Nature of the assay: EGFR mutant enzyme inhibition, HTRF system (Cisbio). It counts as biochemical. Conditions: ATP 1 mM, 37° C. for 2 hours. As to the method:
In order to evaluate the inhibitory activity of the compound represented by formula 1 according to the present invention against EGFR mutation, the following experiment was performed.
The activity of the compound of the present invention against EGFR mutant enzyme was measured using the HTRF system of Cisbio Co. As an EGFR L858R/T790M/C797S mutant enzyme, a protein provided by SignalChem was purchased and used as an enzyme source.
The composition of the assay buffer used for the activity measurement was as follows: 50 mM Tris-HCl (pH 7.5), 100 mM NaCl, 7.5 mM MgCl2, 3 mM KCl, 0.01% Tween 20, 0.1% BSA, and 1 mM DTT. Herein, an enzyme reaction was performed using a peptide substrate labeled with ATP at the concentration of 1 mM and biotin at the concentration of 0.5 μM. The analysis of the EGFR activity inhibitory effect of the compound was performed according to the following analytical reaction recipe.
Component 1: 4 μl of EGFR mutant enzyme
Component 2: 2 μl of compound solution
Component 3: 4 μl of ATP and biotin-labeled peptide mixture
The enzyme reaction was initiated by mixing the component 1 and the component 2 first and then adding the component 3 thereto. After reacting the mixture at 37° C. for 2 hours, 10 μl of a measurement solution consisting of streptavidin-XL665 and europium-labeled anti-phosphotyrosine antibody provided by Cisbio was added to the enzyme reaction solution, followed by reaction at room temperature for 1 hour. Finally, the ratio of the fluorescence values at 615 nm and 665 nm was calculated using Envision equipment of Perkin-Elmer to quantitatively measure the enzyme activity and confirm the inhibitory ability of the compound. The values measured at 7 concentrations of the compound were analyzed using Prism program (version 5.01, Graphpad Software, Inc.), and the IC50 value, an index of the inhibitory ability of the compound, was calculated.
(In TR-FRET formats the signal depends on donor and acceptor labels being close together.)

EGFR L858R/T790M/C797S mutant enzyme, sequence (P00533 25-1210 T790M/C797S/L858R): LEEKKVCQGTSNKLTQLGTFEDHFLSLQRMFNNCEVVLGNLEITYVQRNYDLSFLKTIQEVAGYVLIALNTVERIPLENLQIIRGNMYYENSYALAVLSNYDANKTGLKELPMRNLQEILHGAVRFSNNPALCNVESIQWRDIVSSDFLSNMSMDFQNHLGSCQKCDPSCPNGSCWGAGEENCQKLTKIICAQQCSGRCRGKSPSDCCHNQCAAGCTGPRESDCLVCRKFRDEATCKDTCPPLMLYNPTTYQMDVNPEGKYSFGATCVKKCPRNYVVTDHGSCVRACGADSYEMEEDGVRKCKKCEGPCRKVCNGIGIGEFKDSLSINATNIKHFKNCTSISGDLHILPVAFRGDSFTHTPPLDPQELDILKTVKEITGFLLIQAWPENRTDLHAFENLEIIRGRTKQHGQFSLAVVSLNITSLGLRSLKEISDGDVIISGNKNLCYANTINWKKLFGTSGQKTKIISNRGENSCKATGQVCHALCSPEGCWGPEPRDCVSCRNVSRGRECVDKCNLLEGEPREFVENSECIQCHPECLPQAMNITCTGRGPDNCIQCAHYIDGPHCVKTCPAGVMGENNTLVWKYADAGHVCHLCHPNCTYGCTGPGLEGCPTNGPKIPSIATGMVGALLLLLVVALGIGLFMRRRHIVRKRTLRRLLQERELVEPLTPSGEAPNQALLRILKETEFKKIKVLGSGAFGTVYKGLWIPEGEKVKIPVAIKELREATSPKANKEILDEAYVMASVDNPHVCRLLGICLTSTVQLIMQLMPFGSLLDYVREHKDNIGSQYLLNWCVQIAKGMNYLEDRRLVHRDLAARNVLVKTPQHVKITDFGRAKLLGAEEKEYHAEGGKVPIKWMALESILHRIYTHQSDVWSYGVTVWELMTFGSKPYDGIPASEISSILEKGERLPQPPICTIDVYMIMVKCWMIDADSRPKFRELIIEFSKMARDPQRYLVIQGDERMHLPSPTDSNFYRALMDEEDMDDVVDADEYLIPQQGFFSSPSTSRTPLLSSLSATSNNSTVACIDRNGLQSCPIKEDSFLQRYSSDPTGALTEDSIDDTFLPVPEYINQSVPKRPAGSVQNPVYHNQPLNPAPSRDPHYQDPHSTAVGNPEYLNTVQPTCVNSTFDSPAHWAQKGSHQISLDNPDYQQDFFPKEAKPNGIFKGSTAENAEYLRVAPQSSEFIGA

Consider `CN1CCN(c2ccc3c(c2)C(=O)N([C@@H](c2cc4ccccc4[nH]2)c2cc(F)ccc2O)C3)CC1` [Example 38, (R)-2-((5-fluoro-2-hydroxyphenyl)(1H-indole-2-yl)methyl)-6-(4-methylpiperazine-1-yl)isoindolin-1-one], for which the IC50 worked out at 7600 nM. For `O=C1c2cc(-c3ccc(N4CCOCC4)cc3)ccc2CN1C(c1nc2ccccc2[nH]1)c1cc(F)ccc1O` (stereo not drawn) [Example 39, 2-((1H-benzo[d]imidazole-2-yl)(5-fluoro-2-hydroxyphenyl)methyl)-6-(4-morpholinophenyl)isoindolin-1-one] the value was 960 nM; for `O=C1c2cc(-c3ccc(N4CCOCC4)cc3)ccc2CN1C(c1nc2ccccc2[nH]1)c1cc(Cl)ccc1O` (stereo not drawn) [Example 40, 2-((1H-benzo[d]imidazole-2-yl)(5-chloro-2-hydroxyphenyl)methyl)-6-(4-morpholinophenyl)isoindolin-1-one], 370 nM; for `O=C1c2cc(-c3ccc(-c4ccncc4)cc3)ccc2CN1C(c1nc2ccccc2[nH]1)c1cc(F)ccc1O` (stereo not drawn) [Example 41, 2-((1H-benzo[d]imidazole-2-yl)(5-fluoro-2-hydroxyphenyl)methyl)-6-(4-(pyridine-4-yl)phenyl)isoindolin-1-one], 220 nM. For `O=C1c2cc(-c3ccc(-c4ccncc4)cc3)ccc2CN1C(c1nc2ccccc2[nH]1)c1cc(Cl)ccc1O` (stereo not drawn) [Example 42, 2-((1H-benzo[d]imidazole-2-yl)(5-chloro-2-hydroxyphenyl)methyl)-6-(4-(pyridine-4-yl)phenyl)isoindolin-1-one] the value was 450 nM. For `CN1CCN(c2ccc(-c3ccc4c(c3)C(=O)N([C@@H](c3cc5ccccc5[nH]3)c3cc(F)ccc3O)C4)cc2)CC1` [Example 43, (R)-2-((5-fluoro-2-hydroxyphenyl)(1H-indole-2-yl)methyl)-6-(4-(4-methylpiperazine-1-yl)phenyl)isoindolin-1-one] the value was 210 nM; for `CN1CCN(c2ccc(-c3ccc4c(c3)C(=O)N([C@@H](c3cc5ccccc5[nH]3)c3cc(Cl)ccc3O)C4)cc2)CC1` [Example 44, (R)-2-((5-chloro-2-hydroxyphenyl)(1H-indole-2-yl)methyl)-6-(4-(4-methylpiperazine-1-yl)phenyl)isoindolin-1-one], 190 nM.

As for `O=C1c2cc(-c3ccc(N4CCOCC4)cc3)ccc2CN1[C@@H](c1cc2ccccc2[nH]1)c1cc(F)ccc1O` [Example 45, (R)-2-((5-fluoro-2-hydroxyphenyl)(1H-indole-2-yl)methyl)-6-(4-morpholinophenyl)isoindolin-1-one], the IC50 amounted to 280 nM. For `O=C1c2cc(-c3ccc(N4CCOCC4)cc3)ccc2CN1[C@@H](c1cc2ccccc2[nH]1)c1cc(Cl)ccc1O` [Example 46, (R)-2-((5-chloro-2-hydroxyphenyl)(1H-indole-2-yl)methyl)-6-(4-morpholinophenyl)isoindolin-1-one], it took 110 nM to reach half-maximal inhibition (IC50). Turning to `O=C1c2cc(-c3ccc(-c4ccncc4)cc3)ccc2CN1[C@@H](c1cc2ccccc2[nH]1)c1cc(F)ccc1O` [Example 47, (R)-2-((5-fluoro-2-hydroxyphenyl)(1H-indole-2-yl)methyl)-6-(4-(pyridine-4-yl)phenyl)isoindolin-1-one], the IC50 was 85 nM. As to `O=C1c2cc(-c3ccc(-c4ccncc4)cc3)ccc2CN1[C@@H](c1cc2ccccc2[nH]1)c1cc(Cl)ccc1O` [Example 48, (R)-2-((5-chloro-2-hydroxyphenyl)(1H-indole-2-yl)methyl)-6-(4-(pyridine-4-yl)phenyl)isoindolin-1-one], the IC50 was above 10000 nM. For `O=C1c2cc(-c3ccc(N4CCNCC4)cc3)ccc2CN1[C@@H](c1cc2cccnc2[nH]1)c1cc(F)ccc1O` [Example 49, (R)-2-((5-fluoro-2-hydroxyphenyl)(1H-pyrrolo[2,3-b]pyridine-2-yl)methyl)-6-(4-(piperazine-4-yl)phenyl)isoindolin-1-one], half-maximal inhibition (IC50) was put at 69 nM. With `O=C1c2cc(-c3ccc(N4CCNCC4)cc3)ccc2CN1[C@@H](c1cc2cccnc2[nH]1)c1cc(Cl)ccc1O` [Example 50, (R)-2-((5-chloro-2-hydroxyphenyl)(1H-pyrrolo[2,3-b]pyridine-2-yl)methyl)-6-(4-(piperazine-4-yl)phenyl)isoindolin-1-one], the IC50 stood at 420 nM.

`O=C1c2cc(-c3ccc(N4CCNCC4)cc3)ccc2CN1[C@@H](c1cc2cc(F)ccc2[nH]1)c1cc(F)ccc1O` [Example 51, (R)-2-((5-fluoro-1H-indole-2-yl)(5-fluoro-2-hydroxyphenyl)methyl)-6-(4-(piperazine-1-yl)phenyl)isoindolin-1-one] returned an IC50 of 650 nM. For `O=C1c2cc(-c3ccc(C4=CCNCC4)cc3)ccc2CN1[C@@H](c1cc2cc(F)ccc2[nH]1)c1cc(F)ccc1O` [Example 52, (R)-2-((5-fluoro-1H-indole-2-yl)(5-fluoro-2-hydroxyphenyl)methyl)-6-(4-(1,2,3,6-tetrahydropyridine-4-yl)phenyl)isoindolin-1-one] the value was above 10000 nM. For `O=C1c2cc(-c3ccc(N4CCNCC4)cc3)ccc2CN1[C@H](c1cc2ccccc2[nH]1)c1cc(F)ccc1O` [Example 53, (S)-2-((5-fluoro-2-hydroxyphenyl)(1H-indole-2-yl)methyl)-6-(4-(piperazine-1-yl)phenyl)isoindolin-1-one] the value was 120 nM; for `CC(=O)N1CCN(c2ccc(-c3ccc4c(c3)C(=O)N([C@@H](c3cc5ccccc5[nH]3)c3cc(F)ccc3O)C4)cc2)CC1` [Example 54, (R)-6-(4-(4-acetylpiperazine-1-yl)phenyl)-2-((5-fluoro-2-hydroxyphenyl)(1H-indole-2-yl)methyl)-isoindolin-1-one], 240 nM; for `CN1CCN(C2CCN(c3ccc(-c4ccc5c(c4)C(=O)N([C@@H](c4cc6ccccc6[nH]4)c4cc(F)ccc4O)C5)cc3)CC2)CC1` [Example 57, (R)-2-((5-fluoro-2-hydroxyphenyl)(1H-indole-2-yl)methyl)-6-(4-(4-(4-methylpiperazine-1-yl)piperidine-1-yl)phenyl)isoindolin-1-one], 40 nM. For `CN1CCN(C2CCN(c3ccc(-c4ccc5c(c4)C(=O)N([C@@H](c4cc6ccccc6[nH]4)c4cc(Cl)ccc4O)C5)cc3)CC2)CC1` [Example 58, (R)-2-((5-chloro-2-hydroxyphenyl)(1H-indole-2-yl)methyl)-6-(4-(4-(4-methylpiperazine-1-yl)piperidine-1-yl)phenyl)isoindolin-1-one] the value was 3700 nM; for `O=C1c2cc(-c3ccc(N4CCC(N5CCNCC5)CC4)cc3)ccc2CN1[C@@H](c1cc2ccccc2[nH]1)c1cc(F)ccc1O` [Example 59, (R)-2-((5-fluoro-2-hydroxyphenyl)(1H-indole-2-yl)methyl)-6-(4-(4-(piperazine-1-yl)piperidine-1-yl)phenyl)isoindolin-1-one], 32 nM; for `O=C1c2cc(-c3ccc(N4CCC(N5CCNCC5)CC4)cc3)ccc2CN1[C@@H](c1cc2ccccc2[nH]1)c1cc(Cl)ccc1O` [Example 60, (R)-2-((5-chloro-2-hydroxyphenyl)(1H-indole-2-yl)methyl)-6-(4-(4-(piperazine-1-yl)piperidine-1-yl)phenyl)isoindolin-1-one], 190 nM.
